Measurements published in patent publication US12077503B2, “Substituted cyclic amides and their use as herbicides” (FMC CORPORATION, priority 2015, dated 2024).

Assays:
Format in all cases: in vivo
[1] = tested on: Kochia (Kochia scoparia); assay: Test A preemergence; settings: Bassia scoparia, pre-emergence, 240 h
Outline: (§1)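 Visual injury, scored on a 0–100 scale relative to untreated controls, was recorded about 10 d after application. Treatments were a preemergence soil spray over planted seeds or a postemergence spray on plants at the one- to two-leaf stage, 2 to 10 cm tall, all in loam soil–sand blend in the greenhouse.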

[2] = tested on: barnyardgrass (Echinochloa crus-galli); assay: Test A preemergence; settings: Echinochloa crus-galli, pre-emergence, 240 h
Outline: as §1

[3] = tested on: giant foxtail (Setaria faberii); assay: Test A preemergence; settings: Setaria faberi, pre-emergence, 240 h
Outline: as §1

[4] = tested on: pigweed (Amaranthus retroflexus); assay: Test A preemergence; settings: Amaranthus retroflexus, pre-emergence, 240 h
[5] = tested on: ragweed (common ragweed, Ambrosia elatior); assay: Test A preemergence; settings: Ambrosia artemisiifolia, pre-emergence, 240 h
Outline: as §1

[6] = tested on: ryegrass, Italian (Italian ryegrass, Lolium multiflorum); assay: Test A preemergence; settings: Lolium multiflorum, pre-emergence, 240 h
Outline: as §1

[7] = tested on: Galium (catchweed bedstraw, Galium aparine); assay: Test A postemergence; settings: Galium, post-emergence, 240 h, 125 g ai/ha, Postemergence; visual injury after approximately 10 d; 0 to 100 scale where 0 is no effect and 100 is complete control; read-out: Plant response rating, Galium
Outline: as §1

[8] = tested on: Kochia (Kochia scoparia); assay: Test A postemergence; settings: Bassia scoparia, post-emergence, 240 h, 125 g ai/ha, Postemergence; visual injury after approximately 10 d; 0 to 100 scale where 0 is no effect and 100 is complete control; read-out: Plant response rating, Kochia
Outline: as §1

[9] = tested on: barnyardgrass (Echinochloa crus-galli); assay: Test A postemergence; settings: Echinochloa crus-galli, post-emergence, 240 h, 125 g ai/ha, Postemergence; visual injury after approximately 10 d; 0 to 100 scale where 0 is no effect and 100 is complete control; read-out: Plant response rating, Barnyardgrass
Outline: as §1

[10] = tested on: blackgrass (Alopecurus myosuroides); assay: Test A postemergence; settings: Alopecurus myosuroides, post-emergence, 240 h, 125 g ai/ha, Postemergence; visual injury after approximately 10 d; 0 to 100 scale where 0 is no effect and 100 is complete control; read-out: Plant response rating, Blackgrass
Outline: as §1

[11] = tested on: corn (Zea mays); assay: Test A postemergence; settings: Zea mays, post-emergence, 240 h, 125 g ai/ha, Postemergence; visual injury after approximately 10 d; 0 to 100 scale where 0 is no effect and 100 is complete control
Outline: as §1

[12] = tested on: giant foxtail (Setaria faberii); assay: Test A postemergence; settings: Setaria faberi, post-emergence, 240 h, 125 g ai/ha, Postemergence; visual injury after approximately 10 d; 0 to 100 scale where 0 is no effect and 100 is complete control; read-out: Plant response rating, Foxtail, Giant
Outline: as §1

[13] = tested on: pigweed (Amaranthus retroflexus); assay: Test A postemergence; settings: Amaranthus retroflexus, post-emergence, 240 h, 125 g ai/ha, Postemergence; visual injury after approximately 10 d; 0 to 100 scale where 0 is no effect and 100 is complete control; read-out: Plant response rating, Pigweed
Outline: as §1

[14] = tested on: ragweed (common ragweed, Ambrosia elatior); assay: Test A postemergence; settings: Ambrosia artemisiifolia, post-emergence, 240 h, 125 g ai/ha, Postemergence; visual injury after approximately 10 d; 0 to 100 scale where 0 is no effect and 100 is complete control; read-out: Plant response rating, Ragweed
Outline: as §1

[15] = tested on: ryegrass, Italian (Italian ryegrass, Lolium multiflorum); assay: Test A postemergence; settings: Lolium multiflorum, post-emergence, 240 h, 125 g ai/ha, Postemergence; visual injury after approximately 10 d; 0 to 100 scale where 0 is no effect and 100 is complete control; read-out: Plant response rating, Ryegrass, Italian
Outline: as §1

[16] = tested on: wheat (Triticum aestivum); assay: Test A postemergence; settings: Triticum aestivum, post-emergence, 240 h, 125 g ai/ha, Postemergence; visual injury after approximately 10 d; 0 to 100 scale where 0 is no effect and 100 is complete control; read-out: Plant response rating, Wheat
Outline: as §1

[17] = tested on: barnyardgrass (Echinochloa crus-galli); assay: Test B flooded paddy test; settings: Echinochloa crus-galli, Flood, 250 g ai/ha; scale of 0 to 100 where 0 is no effect and 100 is complete control; read-out: Barnyardgrass plant response rating
Outline: (§2)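 Percent control, visually estimated after 13–15 d in the greenhouse on a 0–100 basis, compares treated pots with untreated ones; compound was put into paddy water 3 cm above the soil when plants had two leaves.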

[18] = tested on: ducksalad (Heteranthera limosa); assay: Test B flooded paddy test; settings: Heteranthera limosa, Flood, 250 g ai/ha; scale of 0 to 100 where 0 is no effect and 100 is complete control; read-out: Ducksalad plant response rating
Outline: as §2

[19] = tested on: rice (Oryra sativa); assay: Test B flooded paddy test; settings: Oryza sativa, Flood, 250 g ai/ha; scale of 0 to 100 where 0 is no effect and 100 is complete control; read-out: Rice plant response rating
Outline: as §2

[20] = tested on: sedge, umbrella (small-flower umbrella sedge, Cyperus difformis); assay: Test B flooded paddy test; settings: Cyperus difformis, Flood, 250 g ai/ha; scale of 0 to 100 where 0 is no effect and 100 is complete control; read-out: Sedge, Umbrella plant response rating
Outline: as §2

For `O=C(Nc1ccccc1F)[C@H]1C(=S)NC[C@@H]1c1ccc(Cl)cc1` (racemic) [Compound 947], the pest or weed control at 125 g/ha ([1]; 125 g ai/ha, Preemergence, visual injury rating after approximately 10 d, read-out: Kochia plant response rating (0 to 100 scale, 0 is no effect, 100 is complete control)) was 0%, the pest or weed control at 500 g/ha ([1]; 500 g ai/ha, preemergence, visual injury rating about 10 d after treatment, 0 to 100 scale (0 no effect, 100 complete control), read-out: Kochia plant response rating) was 40% and the pest or weed control at 125 g/ha ([2]; 125 g ai/ha, Preemergence, visual injury rating after approximately 10 d, read-out: Barnyardgrass plant response rating (0 to 100 scale, 0 is no effect, 100 is complete control)) was 30%. It also gave a pest or weed control at 500 g/ha ([2]; 500 g ai/ha, preemergence, visual injury rating about 10 d after treatment, 0 to 100 scale (0 no effect, 100 complete control), read-out: Barnyardgrass plant response rating) of 60%, a pest or weed control at 125 g/ha ([3]; 125 g ai/ha, Preemergence, visual injury rating after approximately 10 d, read-out: Foxtail, Giant plant response rating (0 to 100 scale, 0 is no effect, 100 is complete control)) of 50% and a pest or weed control at 500 g/ha ([3]; 500 g ai/ha, preemergence, visual injury rating about 10 d after treatment, 0 to 100 scale (0 no effect, 100 complete control), read-out: Foxtail, Giant plant response rating) of 80%. For the same molecule, the pest or weed control at 125 g/ha ([4]; 125 g ai/ha, Preemergence, visual injury rating after approximately 10 d, read-out: Pigweed plant response rating (0 to 100 scale, 0 is no effect, 100 is complete control)) was 0%, the pest or weed control at 500 g/ha ([4]; 500 g ai/ha, preemergence, visual injury rating about 10 d after treatment, 0 to 100 scale (0 no effect, 100 complete control), read-out: Pigweed plant response rating) was 0% and the pest or weed control at 125 g/ha ([5]; 125 g ai/ha, Preemergence, visual injury rating after approximately 10 d, read-out: Ragweed plant response rating (0 to 100 scale, 0 is no effect, 100 is complete control)) was 0%. The pest or weed control at 500 g/ha ([5]; 500 g ai/ha, preemergence, visual injury rating about 10 d after treatment, 0 to 100 scale (0 no effect, 100 complete control), read-out: Ragweed plant response rating) was 0%, the pest or weed control at 125 g/ha ([6]; 125 g ai/ha, Preemergence, visual injury rating after approximately 10 d, read-out: Ryegrass, Italian plant response rating (0 to 100 scale, 0 is no effect, 100 is complete control)) was 0% and the pest or weed control at 500 g/ha ([6]; 500 g ai/ha, preemergence, visual injury rating about 10 d after treatment, 0 to 100 scale (0 no effect, 100 complete control), read-out: Ryegrass, Italian plant response rating) was 0%. The pest or weed control at 125 g/ha [7] was 0%, the pest or weed control at 125 g/ha [8] was 0% and the pest or weed control at 125 g/ha [9] was 20%. It also gave a pest or weed control at 125 g/ha [10] of 0%, a Corn plant response rating (crop injury, 0 = no effect, 100 = complete kill) at 125 g/ha [11] of 0% and a pest or weed control at 125 g/ha [12] of 30%. It also gave a pest or weed control at 125 g/ha [13] of 0%, a pest or weed control at 125 g/ha [14] of 0% and a pest or weed control at 125 g/ha [15] of 0%. The plant injury at 125 g/ha [16] was 0%, the pest or weed control at 250 g/ha [17] was 0% and the pest or weed control at 250 g/ha [18] was 65%. For the same molecule, the pest or weed control at 250 g/ha [19] was 0% and the pest or weed control at 250 g/ha [20] was 0%.
